Source: patent US6706663B2, “Herbicidal 3-heterocyclic substituted benzisothiazole and benzisoxazole compounds” (Wyeth, priority 2000, dated 2004)

How the values were obtained:
[1] = test system: ABUTH (Abutilon theophrasti); experiment: Postemergence herbicidal evaluation; format: in vivo, Medic.
Procedure, shortened: (§1)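 Seedlings grown for about two weeks were sprayed postemergence and then kept under standard greenhouse care. Injury was rated visually 4–5 weeks after treatment on a 0–9 scale against untreated controls, and ratings from repeat tests were averaged.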

GALAP (Galium aparine) = experiment: Postemergence herbicidal evaluation; format: in vivo
Procedure, shortened: as §1

[2] = test system: IPOHE (Ipomoea hederacea); experiment: Postemergence herbicidal evaluation; format: in vivo, (L.) Jacq.
Procedure, shortened: as §1

SETVI (Setaria viridis) [3] = experiment: Postemergence herbicidal evaluation; format: in vivo, (L.) Beau
Procedure, shortened: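 Visual injury score (0-9: stand, vigor, malformation, size, chlorosis, overall appearance vs untreated control) taken four to five weeks post-spray. Two-week-old seedlings received about 0.0040 to 1.000 kg/ha active compound in acetone/water with 0.5% TWEEN 20.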

[4] = test system: GLXMAW (Soybean, Williams); experiment: Postemergence herbicidal evaluation; format: in vivo, Glycine max, (L.) Merr. cv Williams
Procedure, shortened: as §1

[5] = test system: TRZAWR (Wheat, Winter, cv Riband); experiment: Postemergence herbicidal evaluation; format: in vivo, Triticum aestivum
Procedure, shortened: as §1

[6] = test system: ABUTH (Abutilon theophrasti); experiment: Preemergence herbicidal evaluation; format: in vivo, Medic.; details: rated 4-5 weeks after treatment
[7] = test system: AMBEL (Ambrosia artemisifolia); experiment: Preemergence herbicidal evaluation; format: in vivo, L.; details: rated 4-5 weeks after treatment
Procedure, shortened: (§2)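 Each species was sown separately in potting soil over roughly one inch of soil, and the surface sprayed with compound dissolved in aqueous acetone. Assessment used a 0–9 visual scale against a control after four to five weeks.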

[8] = test system: CASOB (Cassia obtusifolia); experiment: Preemergence herbicidal evaluation; format: in vivo, L.; details: rated 4-5 weeks after treatment
Procedure, shortened: as §2

[9] = test system: CHEAL (Chenopodium album); experiment: Preemergence herbicidal evaluation; format: in vivo, L.; details: rated 4-5 weeks after treatment
Procedure, shortened: as §2

[10] = test system: ECHCG (Echinochloa crus-galli); experiment: Preemergence herbicidal evaluation; format: in vivo, (L.) Beau; details: rated 4-5 weeks after treatment
Procedure, shortened: as §2

SETVI (Setaria viridis) [11] = experiment: Preemergence herbicidal evaluation; format: in vivo, (L.) Beau; details: rated 4-5 weeks after treatment
Procedure, shortened: as §2

ZEAMX (Corn, Field) = experiment: Preemergence herbicidal evaluation; format: in vivo, Zea mays, L.; details: rated 4-5 weeks after treatment
[12] = test system: CYPSE (Cyperus serotinus); experiment: Flooded paddy, preemergence weed control; format: in vivo, Rottb.; details: rated 3-4 weeks after treatment, 0-9 rating scale
Procedure, shortened: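 Herbicidal effect was scored visually on a 0–9 scale against an untreated control 3–4 weeks after treatment. Compounds were applied preemergence as 50/50 v/v aqueous/acetone mixtures into flood water (1.5–3 cm deep over silt loam), at roughly 0.0080 to 0.1250 kg/ha active ingredient.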

[13] = test system: MOOVA (Monochoria vaginalis); experiment: Flooded paddy, preemergence weed control; format: in vivo, Presl.; details: rated 3-4 weeks after treatment, 0-9 rating scale
Procedure, shortened: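 Seeds or propagating organs were sown in the top 0.5 cm of silt loam soil, flooded, and the water kept 1.5 to 3 cm above the soil surface throughout. Plants were grown in the greenhouse and rated visually on a 0-9 scale against a control.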

ORYSAT (Rice, Tebonnet) = experiment: Flooded paddy, post-transplant rice tolerance; format: in vivo, Oryza sativa, (L.) Tebonnet; details: flooded paddy, post-transplant rice, rated 3-4 weeks after treatment, 0-9 rating scale
Procedure, shortened: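 Visual 0-9 rating against a control, covering stand, vigor, malformation, size, chlorosis and overall appearance. Treatment was applied after transplanting paired ten-day-old seedlings into flooded silt loam, with water kept 1.5 to 3 cm deep on greenhouse benches.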

## C[C@H]1OC(c2nsc3ccc(-n4c(=O)cc(C(F)(F)F)n(C)c4=O)cc23)O[C@@H]1C [Compound 48, 3-[3-[(4R,5R)-4,5-dimethyl-1,3-dioxolan-2-yl]-1,2-benzisothiazol-5-yl]-1-methyl-6-(trifluoromethyl)uracil]
[1]; rate 0.0320 kg/ha
  Postemergence herbicidal rating, ABUTH: 9.0
[1]; rate 0.0620 kg/ha
  Postemergence herbicidal rating, ABUTH: 9.0
GALAP (Galium aparine); rate 0.0320 kg/ha
  Postemergence herbicidal rating, GALAP: 9.0
GALAP (Galium aparine); rate 0.0620 kg/ha
  Postemergence herbicidal rating, GALAP: 9.0
[2]; rate 0.0320 kg/ha
  Postemergence herbicidal rating, IPOHE: 9.0
[2]; rate 0.0620 kg/ha
  Postemergence herbicidal rating, IPOHE: 9.0
SETVI (Setaria viridis) [3]; rate 0.0320 kg/ha
  Postemergence herbicidal rating, SETVI: 9.0
SETVI (Setaria viridis) [3]; rate 0.0620 kg/ha
  Postemergence herbicidal rating, SETVI: 9.0
[4]; rate 0.0320 kg/ha
  Postemergence herbicidal rating, GLXMAW: 8.0
[4]; rate 0.0620 kg/ha
  Postemergence herbicidal rating, GLXMAW: 8.7
[5]; rate 0.0320 kg/ha
  Postemergence herbicidal rating, TRZAWR: 5.0
[5]; rate 0.0620 kg/ha
  Postemergence herbicidal rating, TRZAWR: 5.7
[6]; Rate 0.0620 kg/ha
  Preemergence herbicidal rating ABUTH: 9.0
[6]; Rate 0.1250 kg/ha
  Preemergence herbicidal rating ABUTH: 9.0
[6]; Rate 0.2500 kg/ha
  Preemergence herbicidal rating ABUTH: 9.0
[7]; Rate 0.0620 kg/ha
  Preemergence herbicidal rating AMBEL: 9.0
[7]; Rate 0.1250 kg/ha
  Preemergence herbicidal rating AMBEL: 9.0
[7]; Rate 0.2500 kg/ha
  Preemergence herbicidal rating AMBEL: 9.0
[8]; Rate 0.0620 kg/ha
  Preemergence herbicidal rating CASOB: 5.0
[8]; Rate 0.1250 kg/ha
  Preemergence herbicidal rating CASOB: 7.5
[8]; Rate 0.2500 kg/ha
  Preemergence herbicidal rating CASOB: 9.0
[9]; Rate 0.0620 kg/ha
  Preemergence herbicidal rating CHEAL: 9.0
[9]; Rate 0.1250 kg/ha
  Preemergence herbicidal rating CHEAL: 9.0
[9]; Rate 0.2500 kg/ha
  Preemergence herbicidal rating CHEAL: 9.0
[10]; Rate 0.0620 kg/ha
  Preemergence herbicidal rating ECHCG: 9.0
[10]; Rate 0.1250 kg/ha
  Preemergence herbicidal rating ECHCG: 9.0
[10]; Rate 0.2500 kg/ha
  Preemergence herbicidal rating ECHCG: 9.0
SETVI (Setaria viridis) [11]; Rate 0.0620 kg/ha
  Preemergence herbicidal rating SETVI: 9.0
SETVI (Setaria viridis) [11]; Rate 0.1250 kg/ha
  Preemergence herbicidal rating SETVI: 9.0
SETVI (Setaria viridis) [11]; Rate 0.2500 kg/ha
  Preemergence herbicidal rating SETVI: 9.0
ZEAMX (Corn, Field); Rate 0.0620 kg/ha
  Preemergence herbicidal rating ZEAMX: 7.5
ZEAMX (Corn, Field); Rate 0.1250 kg/ha
  Preemergence herbicidal rating ZEAMX: 8.0
ZEAMX (Corn, Field); Rate 0.2500 kg/ha
  Preemergence herbicidal rating ZEAMX: 9.0
[12]; rate 0.0320 kg/ha
  herbicidal rating, CYPSE: 9.0
[12]; rate 0.1250 kg/ha
  herbicidal rating, CYPSE: 9.0
[13]; rate 0.0320 kg/ha
  herbicidal rating, MOOVA: 9.0
[13]; rate 0.1250 kg/ha
  herbicidal rating, MOOVA: 9.0
ORYSAT (Rice, Tebonnet); rate 0.0080 kg/ha
  herbicidal rating, ORYSAT (rice tolerance): 5.0
ORYSAT (Rice, Tebonnet); rate 0.0320 kg/ha
  herbicidal rating, ORYSAT (rice tolerance): 8.0
ORYSAT (Rice, Tebonnet); rate 0.1250 kg/ha
  herbicidal rating, ORYSAT (rice tolerance): 9.0
